Experimental data: BindingDB's records for doi:10.1016/j.bmc.2015.05.058 (Washington University, 2015)

Molecular target: T1, Vesicular acetylcholine transporter (Homo sapiens, UniProt Q16572)
T1 sequence (Q16572 whole entry): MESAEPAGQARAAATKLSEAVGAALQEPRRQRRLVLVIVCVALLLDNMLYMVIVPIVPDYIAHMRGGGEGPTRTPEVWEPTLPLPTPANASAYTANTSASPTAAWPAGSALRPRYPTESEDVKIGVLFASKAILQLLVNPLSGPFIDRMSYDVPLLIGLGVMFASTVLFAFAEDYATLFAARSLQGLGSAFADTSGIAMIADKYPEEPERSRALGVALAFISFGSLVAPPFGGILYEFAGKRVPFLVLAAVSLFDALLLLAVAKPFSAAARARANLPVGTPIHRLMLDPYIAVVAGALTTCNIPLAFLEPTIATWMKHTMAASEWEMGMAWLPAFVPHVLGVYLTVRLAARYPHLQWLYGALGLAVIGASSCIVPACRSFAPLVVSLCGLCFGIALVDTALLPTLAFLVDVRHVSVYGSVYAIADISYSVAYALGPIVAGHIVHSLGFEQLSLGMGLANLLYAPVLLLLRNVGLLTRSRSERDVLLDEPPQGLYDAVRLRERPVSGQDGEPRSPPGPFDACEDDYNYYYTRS
Assay: Displacement of [3H]-vesamicol from human VAChT after 24 hrs by liquid scintillation spectrometry analysis

Row | Compound | Ki [nM]
1 | O=C(c1ccc(F)cc1)C1CCN([C@@H]2Cc3c(cccc3OCCF)C[C@H]2O)CC1 | 1.6
2 | O=C(c1ccc(F)cc1)C1CCN(C2Cc3c(cccc3OCCF)CC2O)CC1 (stereo not drawn) | 13
3 | O=C(c1ccc(F)cc1)C1CCN([C@@H]2Cc3cccc(OCCF)c3C[C@H]2O)CC1 | 93
